Peptide text beside a SMILES is read from it. * marks the point of attachment. Tos = Cc1ccc(S(=O)(=O)*)cc1

A word on the melting point: it is the temperature of the solid-liquid transition.

Regarding `Cc1ccc(S(=O)(=O)N2CCC[C@H]2C(=O)N[C@@H](CCC(N)=O)C(=O)O)cc1` [Example 5, N-(Toluene-4-sulfonyl)-L-prolyl-L-glutamine] (Tos-Pro-Gln-OH), the melting point was 45 to 55 °C.

As to `Cc1ccc(S(=O)(=O)N2CCC[C@H]2C(=O)N[C@@H](CC(N)=O)C(=O)O)cc1` [Example 2, N-(Toluene-4-sulfonyl)-L-prolyl-L-asparagine] (Tos-Pro-Asn-OH), the melting point is 178 to 180 °C.
